Laboratory results: ChEMBL document CHEMBL1132326, “Synthesis and dopamine receptor modulating activity of substituted bicyclic thiazolidine lactam peptidomimetics of L-prolyl-L-leucyl-glycinamide” (1999)

Key:
Rattus norvegicus [1] = assay: Effect on rotational behavior in rat after i.p. administration of 1 ug/kg; type: functional
Rattus norvegicus [2] = assay: Effect on rotational behavior in rat after i.p. administration of 0.1 ug/kg; type: functional

Row | Structure (SMILES) | Increase (Rattus norvegicus [1]) [%] | Increase (Rattus norvegicus [2]) [%]
1 | NC(=O)[C@H]1CS[C@@H]2C[C@@](Cc3ccccc3)(NC(=O)[C@@H]3CCCN3)C(=O)N12 | 30 | 
2 | CC(C)C[C@@]1(NC(=O)[C@@H]2CCCN2)C[C@H]2SC[C@H](C(N)=O)N2C1=O | 44 | 
3 | NC(=O)[C@H]1CS[C@@H]2C[C@@H](NC(=O)[C@@H]3CCCN3)C(=O)N12 |  | 23
4 | CCCC[C@@]1(NC(=O)[C@@H]2CCCN2)C[C@H]2SC[C@H](C(N)=O)N2C1=O |  | 56
